# Measurements as given in ChEMBL document CHEMBL1201862, “PubChem BioAssay data set” (2004).
# Activity calls are given as the source filed them. Cut-off read from the data, not from the text of the source, for most assays here: actives have a measured EC50 and inactives only a lower limit.
# How the values were obtained:
# Streptococcus = assay: Group A Streptococcus viability loss, dose response, counter-screen for streptokinase expression inhibitor project, luminescence, BacTiterGlo (AID 1915); format: functional, organism-based;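 note: potency for reduction of bacterial viability or growth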
# Streptokinase A = molecular target: T1, Streptokinase A (Streptococcus pyogenes serotype M1, UniProt P10520); assay: S. pyogenes streptokinase expression inhibitors, potency, dose response, plasminogen activation absorbance, OD405 (AID 1914); format: functional, Streptococcus pyogenes M1 GAS;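 note: secreted streptokinase activity via plasminogen activation per viability signal from cell pellet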
# T1 sequence (P10520 whole entry): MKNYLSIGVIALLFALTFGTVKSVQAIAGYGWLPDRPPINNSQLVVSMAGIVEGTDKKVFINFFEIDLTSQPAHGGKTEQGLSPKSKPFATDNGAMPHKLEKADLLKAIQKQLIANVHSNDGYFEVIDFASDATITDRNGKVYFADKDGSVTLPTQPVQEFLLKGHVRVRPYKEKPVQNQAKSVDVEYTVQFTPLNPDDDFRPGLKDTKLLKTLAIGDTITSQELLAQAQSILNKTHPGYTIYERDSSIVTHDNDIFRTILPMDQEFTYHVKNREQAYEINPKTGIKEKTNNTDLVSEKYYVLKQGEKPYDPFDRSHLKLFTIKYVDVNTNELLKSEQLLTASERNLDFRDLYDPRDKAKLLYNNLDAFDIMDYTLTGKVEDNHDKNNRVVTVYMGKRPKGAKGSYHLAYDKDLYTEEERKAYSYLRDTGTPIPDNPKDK
# [1] = molecular target: T2, Heat shock factor protein 1 (Mus musculus, UniProt P38532); assay: inhibition of MG132-induced HSE-luciferase signal, confirmation, cell-based, NIH3T3, luminescence, dose retest (AID 2382); format: functional;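 note: NIH3T3 fibroblasts with HSF1-driven luciferase reporter stressed by proteasome inhibitor MG132; luminescence from HSF1-driven luciferase expression after 8 hours of MG132 stress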
# T2 sequence (P38532 whole entry): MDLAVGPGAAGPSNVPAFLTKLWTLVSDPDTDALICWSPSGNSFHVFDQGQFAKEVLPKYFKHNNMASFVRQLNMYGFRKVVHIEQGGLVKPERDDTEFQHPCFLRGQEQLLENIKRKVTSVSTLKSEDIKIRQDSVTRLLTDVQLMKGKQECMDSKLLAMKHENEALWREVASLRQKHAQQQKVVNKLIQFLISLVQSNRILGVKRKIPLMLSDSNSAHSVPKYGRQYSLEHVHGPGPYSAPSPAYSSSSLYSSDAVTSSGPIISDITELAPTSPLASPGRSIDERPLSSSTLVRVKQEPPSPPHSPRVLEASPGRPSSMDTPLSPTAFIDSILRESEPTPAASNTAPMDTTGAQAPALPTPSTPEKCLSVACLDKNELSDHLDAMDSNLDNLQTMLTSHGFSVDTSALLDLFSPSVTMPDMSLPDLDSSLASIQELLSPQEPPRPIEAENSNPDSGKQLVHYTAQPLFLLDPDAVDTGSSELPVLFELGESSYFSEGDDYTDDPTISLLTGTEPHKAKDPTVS
# [2] = inhibitors of SNCA 5'UTR-driven reporter translation, confirmation, H4 neuroglioma cells, luminescence (AID 1988); format: functional, cell-based
# [3] = Luminescence Cell-Based Dose Response HTS to Identify Inhibitors of 5'UTR Stem-Loop Driven Prion Protein mRNA Translation in H4 Neuroglioblastoma Cells. [Related pubchem assays: 1827 (Project Summary), 1813 (Primary HTS)]; format: functional
# [4] = inhibitors of firefly luciferase expression or activity, dose response, H4 neuroglioma cells, luminescence (AID 1990); format: functional, cell-based
# [5] = HEp-2 cell cytotoxicity, dose response, cytotoxicity control for RSV inhibitor project, HTS (AID 2410); format: functional; settings: human respiratory syncytial virus
# [6] = test system: Streptococcus sp. 'group A'; assay: growth inhibition of control SK(-) GAS strain, dose response, counter-screen for streptokinase expression inhibitor project, luminescence, kanamycin, BacTiterGlo, confirmation (AID 1900); format: functional, organism-based
# INS1 = assay: beta cell apoptosis inhibitors, cytokine rescue, dose response, luminescence, retest (AID 449756); format: functional, cell-based; settings: Rattus norvegicus;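 note: cell death triggered by IL-1 beta plus TNF-alpha plus IFN-gamma mixture; protective hits raise ATP signal compared with cytokine alone wells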
smiles,measurement,setting,value
CCOC(=O)N1CCN(C(=O)c2ccc3c(=O)n(CCC4=CCCCC4)c(=S)[nH]c3c2)CC1,EC50,Streptococcus,> 150 µM (not active)
same,EC50,Streptokinase A,29.8 µM (active)
Cc1ccc(N(CC(=O)NCCSCc2ccco2)S(C)(=O)=O)cc1,EC50,[1],> 195 µM (not active)
COc1cc(C(=O)O/N=C(\N)Cc2ccc([N+](=O)[O-])cc2)cc(OC)c1OC,EC50,[2],8.41 µM (active)
same,EC50,[3],> 120 µM (not active)
same,EC50,[4],23.3 µM (active)
O=C(NCCC1CCCCN1S(=O)(=O)c1ccc(F)cc1)C(=O)Nc1ccccc1F (centres undefined),EC50,[1],> 195 µM (not active)
COc1cccc(NC(=S)N(CCc2c(C)[nH]c3ccc(C)cc23)Cc2cccs2)c1,CC50,[5],13.4 µM (active)
CCOC(=O)C1CCCCN1C(=O)CCc1c(C)nc2ncnn2c1C (centres undefined),EC50,[2],14.8 µM (active)
same,EC50,[3],> 120 µM (not active)
same,EC50,[4],14.7 µM (active)
Cc1cc(C)cc(NC(=O)N2CCN(Cc3ccc4c(c3)OCO4)CC2)c1,EC50,[1],> 195 µM (not active)
CCn1cnc2sc(C(=O)Oc3cccc(C)c3)c(C)c2c1=O,EC50,Streptococcus,28.8 µM (active)
same,EC50,Streptokinase A,> 150 µM (not active)
same,EC50,[6],11.8 µM (active)
Cn1c(=O)c2c3c(sc2n2c(SCc4ccccc4)nnc12)CCCC3,CC50,[5],> 50 µM (active)
Cc1ccccc1Nc1c(-c2ccccn2)nc2c(C)cccn12,EC50,Streptococcus,> 150 µM (not active)
same,EC50,Streptokinase A,> 150 µM (not active)
same,EC50,[6],19.3 µM (active)
same,AC50,INS1,6.81 µM (active)
COc1ccccc1N1CC(C)C(=O)NC1=S (centres undefined),EC50,[1],> 195 µM (not active)
NCCCC[C@@H](C(=O)N1CCNCC1)n1cc([C@@H](N)CO)nn1,EC50,[1],> 195 µM (not active)
CC(Sc1nc2cc([N+](=O)[O-])ccc2n1-c1cccc(C(F)(F)F)c1)C(=O)NC(N)=O (centres undefined),EC50,Streptococcus,> 150 µM (not active)
same,EC50,Streptokinase A,> 150 µM (not active)
same,EC50,[6],> 150 µM (not active)
c1ccc2c(c1)CC1(CCCCC1)n1nnnc1-2,EC50,[1],> 195 µM (not active)
CC1(C)C[C@H](O)[C@]2(CO)CC[C@]3(C)C(=CCC4[C@@]5(C)CC[C@H](O)C(C)(C)C5CC[C@]43C)[C@@H]2C1 (some centres undefined),CC50,[5],36.2 µM (active)
CCOC(=O)Cn1c(CN2CCN(c3cccc(Cl)c3)CC2)nc2c1c(=O)[nH]c(=O)n2C,EC50,[1],> 195 µM (not active)
COC(=O)C1=C(C(=O)OC)[C@@H]2N(C)c3ccccc3[C@@]23C[C@@H](C(=O)OC)N(C(=O)CC(C)C)C3=N1,EC50,[1],> 195 µM (not active)
COCC(C)NC(=O)c1ccc2nc(-c3ccccc3)c(-c3ccccc3)nc2c1 (centres undefined),EC50,[1],> 195 µM (not active)
CCN(CC(=O)NCC1CCCO1)S(=O)(=O)c1ccc(Cl)cc1 (centres undefined),EC50,Streptococcus,> 150 µM (not active)
same,EC50,Streptokinase A,> 150 µM (not active)
same,EC50,[6],> 150 µM (not active)
CC12CC(c3ccccc3O1)C(C(=O)NCc1ccccc1)C(=O)N2 (centres undefined),EC50,[1],> 195 µM (not active)
CCc1ccc(Nc2n[n+](-c3ccccc3)c(-c3ccc(OC)c(Br)c3)s2)cc1,CC50,[5],31.3 µM (active)
Cc1cccc(NC(=O)c2ccc(S(=O)(=O)N(C)CC3CCCO3)cc2)c1C (centres undefined),EC50,Streptococcus,> 150 µM (not active)
same,EC50,Streptokinase A,> 150 µM (not active)
same,EC50,[6],> 150 µM (not active)
CC(=O)NNC(=O)c1csc(Cc2c(Cl)sc3ccc(Cl)cc23)n1,EC50,[2],10.3 µM (active)
same,EC50,[3],> 120 µM (not active)
same,EC50,[4],11.5 µM (active)
Cc1oc(-c2ccccc2Cl)nc1C[S+]([O-])CC(=O)NCCc1ccccc1 (centres undefined),EC50,[2],> 120 µM (not active)
same,EC50,[3],> 120 µM (not active)
same,EC50,[4],> 120 µM (not active)
CSc1nc2c(c(=O)n1Cc1ccccc1)SC(C)C2 (centres undefined),EC50,[2],84.8 µM (active)
same,EC50,[3],> 120 µM (not active)
same,EC50,[4],25.7 µM (active)
Cc1nc(C(=O)NNC(=O)c2c(-c3c(Cl)cccc3Cl)noc2C)cs1,AC50,INS1,6.91 µM (active)
Cc1ccc(N2C(=O)/C(=C\Nc3cc(C)on3)c3ccccc3C2=O)c(C)c1,EC50,[2],12.9 µM (active)
same,EC50,[3],19.6 µM (active)
same,EC50,[4],> 120 µM (not active)
COc1ccccc1Nc1ncnc2c1c(C)c(C)n2CCO,CC50,[5],> 50 µM (active)
CC1(C)Cc2nc3sc4c(OCc5ccccc5)ncnc4c3cc2CO1,EC50,Streptococcus,11 µM (active)
same,EC50,Streptokinase A,> 150 µM (not active)
same,EC50,[6],4.04 µM (active)
c1ccc(-n2nnnc2Oc2ccc(-c3nnco3)cc2)cc1,EC50,[1],> 195 µM (not active)
Oc1ccccc1CNc1ccc(OC(F)(F)F)cc1,EC50,[1],> 195 µM (not active)
CCN(CC)CC(=O)Nc1sc2c(c1C(=O)c1ccccc1OC)CCC2,EC50,[2],> 120 µM (not active)
same,EC50,[3],16.2 µM (active)
same,EC50,[4],> 120 µM (not active)
Cc1ccccc1Nc1nc(N)nc(CN(C)Cc2ccccc2Cl)n1,EC50,Streptococcus,> 150 µM (not active)
same,EC50,Streptokinase A,> 150 µM (not active)
same,EC50,[6],> 150 µM (not active)
COc1cc2c3c(c1)/C(=C1/SC(=S)NC1=O)C(=O)N3C(C)(C)C=C2C,EC50,Streptococcus,8.28 µM (active)
same,EC50,Streptokinase A,1.72 µM (active)
same,EC50,[6],2.63 µM (active)
O=C(COc1ccc(Cl)cc1)NCc1nnc2c3ccccc3c(-c3ccccc3)nn12,CC50,[5],17.9 µM (active)
COc1ccc(C=O)cc1Cn1ccnc1C,EC50,[1],> 195 µM (not active)
Cc1c(C(=O)OCC(=O)N2CC(C)OC(C)C2)oc2ccc(Br)cc12 (centres undefined),EC50,[1],> 195 µM (not active)
CC(=O)c1cccc(NC(=O)CN2C(=O)c3ccccc3C2=O)c1,EC50,[1],> 195 µM (not active)
COC(=O)C1=CN(c2ccc(OC)cc2)C=C(C(=O)OC)C1c1ccc(C)c([N+](=O)[O-])c1,CC50,[5],48.1 µM (active)
CN1C(=O)/C(=C/c2ccc(C(F)(F)F)cc2)Sc2ccc(C(=O)N3CCN(c4ccccn4)CC3)cc21,EC50,Streptococcus,12.5 µM (active)
same,EC50,Streptokinase A,> 150 µM (not active)
same,EC50,[6],1.53 µM (active)
Cc1ccc(-c2cn(-c3ccccc3)c(S)n2)cc1C,EC50,[1],> 195 µM (not active)
C=CCn1c(NCc2ccc(OC)cc2O)nc2ccccc21,CC50,[5],37.8 µM (active)
O=S(=O)(c1ccc2c(c1)OCCO2)N1CCC(c2nc(O)c3nnn(Cc4ccc(F)cc4)c3n2)CC1,CC50,[5],37.6 µM (active)
CCOC(=O)c1c(C)[nH]c(C(=O)OCC(=O)NC(C)(C)C)c1C,AC50,INS1,5.11 µM (active)
Cc1nc2c(-c3ccccc3)c(C)nn2c(O)c1Cc1ccccc1,EC50,Streptococcus,18.5 µM (active)
same,EC50,Streptokinase A,> 50 µM (not active)
same,EC50,[6],9.56 µM (active)
CCn1c(SCC(=O)Nc2oc(C)c3c(C)nnc(O)c23)nc2sc(C)c(C)c2c1=O,EC50,[1],> 195 µM (not active)
CC(C)(C)OC(=O)N1CCC(CNC(=O)c2cccs2)CC1,AC50,INS1,> 260 µM (inactive)
O=C(N/N=C/c1ccccc1)c1c(O)nc2ccccc2c1O,AC50,INS1,6.26 µM (active)
FC(F)(F)c1ccccc1/C=N/n1c(S)nnc1C1CCCCC1,EC50,Streptococcus,15.7 µM (active)
same,EC50,Streptokinase A,32.4 µM (inconclusive)
same,EC50,[6],8.41 µM (active)
Cc1nn(-c2ccccc2)c(O)c1/C=N/NC(=O)COc1ccccc1[N+](=O)[O-],AC50,INS1,3.4 µM (active)
CCOC(=O)c1ccc(/N=c2\sc(C(=O)OC)cc(=O)n2Cc2ccc3c(c2)OCO3)cc1,CC50,[5],20.8 µM (active)
COc1ccc(CN2C(=O)c3ccccc3C(/C=N\OCc3ccc(C)cc3)C2=O)cc1 (centres undefined),EC50,Streptococcus,11.2 µM (active)
same,EC50,Streptokinase A,> 150 µM (not active)
same,EC50,[6],1.67 µM (active)
COc1cc(Cc2cc(N)nc(N)n2)cc(OC)c1OC,EC50,Streptococcus,> 150 µM (not active)
same,EC50,Streptokinase A,> 150 µM (not active)
same,EC50,[6],3.11 µM (active)
Cc1ccc(S(=O)(=O)Nc2ccccc2N(C)S(=O)(=O)c2ccc(C)cc2)cc1,AC50,INS1,10.2 µM (active)
C[C@H](CCC(=O)NCC(=O)O)[C@H]1CC[C@H]2[C@@H]3[C@H](O)C[C@@H]4C[C@H](O)CC[C@]4(C)[C@H]3C[C@H](O)[C@]12C [GLYCOCHOLIC ACID],EC50,Streptococcus,> 150 µM (not active)
same,EC50,Streptokinase A,> 150 µM (not active)
same,EC50,[6],> 150 µM (not active)
